“Also recorded” adds a separate entry of the source.
How the values were obtained:
[1] = system: MethA; assay: Mouse therapy model, MethA-transplanted BALB/c mice (tumor volume); assay type: in vivo; details: MethA in BALB/c mice; combined with PD-L1 antibody
Protocol: MC38 (5×10^5) and MethA (5×10^5) cells were intradermally injected on the right flank. MC38 was inoculated into C57BL/6 mice and MethA was inoculated into BALB/c mice. For monotherapy, mice were intraperitoneally injected with 150 μg of PD-L1 mouse antibody (1-111A) (prepared by the laboratory of the present inventors) 5 days after the tumor inoculation. Therapy with PD-L1 antibody alone was repeated three times every 5 days. For combination therapy, administration of PD-L1 antibody and chemical agents started 7 days after tumor injection. Chemical agents were injected at a regular interval of 2 days and PD-L1 antibody at a regular interval of 5 days (shown in FIG. 3b). Tumors were measured on every alternate day, and tumor volumes were calculated using the formula for typical ellipsoid, π×(length×breadth×height/6).
The following chemical reagents were used at the indicated concentrations for combination therapy. AMPK activator: A769662, 6 mg/kg (Abcam); mTOR activator: MHY1485, 3 μg/kg (Sigma-Aldrich); uncoupler: carbonylcyanide-p-trifluoromethoxyphenylhydrazone (FCCP), 1.2 mg/kg (Abcam); uncoupler: 2,4-Dinitrophenol (DNP), 1.7 mg/kg (Aldrich); SIRT1 activator: resveratrol, 0.5 mg/kg (Abcam); ROS scavenger: Mn (III) tetrakis (4-benzoic acid) porphyrin (MnTBAP), 1.25 mg/kg (Calbiochem); ROS generator: tert-butyl hydroperoxide solution (Luperox TBH70X), 200 μL/kg (Sigma-Aldrich); ATP synthase inhibitor: oligomycin, 250 μg/kg (Sigma-Aldrich); paraquat 2 mg/kg (Nakalai Tesque); oltipraz 1.9 mg/kg (Sigma); bezafibrate 1 mg/kg (ChemCruz).
MethA cells (5×10^5) were inoculated into BALB/c mice. After 7 days, anti-PD-L1 antibody (1-111A, 80 μg) and Foxo1 inhibitor (5-amino-7-(cyclohexylamino)-1-ethyl-6-fluoro-4-oxo-1,4-dihydroquinoline-3-carboxylic acid, Calbiochem) (2 mg/kg) were administered intraperitoneally.
Fibrosarcoma MethA (Cell Resource Center for Biomedical Research) cells (5×10^5) were inoculated into BALB/c mice. After 7 days, anti-PD-L1 antibody (1-111A, 60 μg) and Aminoleban (Otsuka Pharmaceutical, 400 μl/mouse) were administered.

[2] = system: PGC-1α; assay: PGC-1α expression (Western blotting, real-time RT-PCR); assay type: in vivo, mouse; details: combination therapy together with PD-L1 antibody
Protocol: RNA was isolated from CD8^+ T cells or tumor cells with the RNeasy Mini Kit (Qiagen), followed by cDNA synthesis by reverse transcription. Real-time PCR for PGC-1α was performed using the following primers: Forward […] (SEQ ID NO: 1) and Reverse […] (SEQ ID NO: 2). To analyze the expression levels of genes associated with apoptosis and mitochondrial energy metabolism, RT2 Profiler PCR Array Gene Expression Kit PAMM-012Z or PAMM-008Z (Qiagen) was used. The list of genes included in this assay can be found in www.sabiosciences.com/Apoptosis.php.
CD8^+ T cells were isolated using mouse CD8 Microbeads (Miltenyi Biotec). After washing with PBS twice, 2×10^6 cells were solubilized in a lysis buffer containing 30 mM Tris-HCl (pH.7.4), 150 mM NaCl, 10% glycerol, 0.1% SDS, 1% Triton-X-100, 0.05% Na-Doc, 5 mM EDTA (pH.8.0), protease inhibitor mixture (Roche Molecular Biochemicals) and phosphatase inhibitors (Nacalai Tesque). After measurement of protein concentrations by DC protein assay (Bio-Rad), 4 μg of proteins was mounted on 4 to 20% gradient Mini-PROTEAN TGX Gels (Bio-Rad) and electroblotted onto nitrocellulose membranes, which were then incubated in a blocking buffer of TBS containing 1% BSA. Primary antibody incubations were carried out overnight at 4° C. in blocking buffer. After washing, secondary antibody incubations were carried out at room temperature for 40 min in blocking buffer. Blots were developed with enhanced chemiluminescence (Amersham Pharmacia). Primary antibodies recognizing the following proteins were used: Phospho-mTOR (P-mTOR) (Cat #5536), Phospho-AMPKa (P-AMPK) (#2535), Phospho-p70 S6 Kinase (P-S6K) (#9205), 4E-BP1 (#9644), Phospho-Acetyl-CoA Carboxylase (P-ACC) (#3661) and SIRT1 (#9475). All the primary antibodies were obtained from Cell Signaling Technology. An antibody recognizing PGC-1α (SC-13067) was obtained from Santa Cruz.

[3] = system: T-bet and Eomes; assay: T-bet and Eomes expression by flow cytometry in DLN CD8+ T cells; assay type: in vivo, mouse; details: combined with PD-L1 antibody
Protocol: FIG. 15. […] Data represent the means±SEM of five mice. *p<0.05, **p<0.01, one-way ANOVA.
The following antibodies recognizing the indicated antigens were used: CD44 (1M7), CD45.2 (104), CD45.1 (A20), CD8 (53-6.7), CD62L (MEL-14), T-bet (4B/O) and IFN-7 (XMG1.2), MHC class I (AF6-88.5), CD155 (Tx56) and VISTA (MIH63) from BioLegend; p-AMPK (EPR5683) from Ancam; p-mTOR (MRRBY), Eomes (Danllmag) and PD-L1 (M1H5) from eBioscience. All flow cytometry experiments were performed on a FACS Canto II (BD Biosciences) and analyzed using FlowJo software (FLOWJO, LLC). For assessment of intracellular phosphoproteins, cells were permeabilized with 0.5% Triton-X and fixed with 1.5% PFA before staining. Determination of mitochondrial mass, membrane potential, mitochondrial superoxide and cellular ROS was performed using MitoTracker Green, Mito-Tracker Deep Red, MitoSOX Red, and CellROX Green reagents, respectively (all from Life Technologies). These dyes were added to cells to a final concentration of 0.125 μM, 0.125 μM, 5.0 μM and 0.625 μM, respectively, and incubated at 37° C. in a 5% CO2 humidified incubator for 30 min.

Question: For N#CC(C#N)=NNc1ccc(OC(F)(F)F)cc1 [FCCP, carbonyl cyanide p-trifluoromethoxyphenylhydrazone], which “enhancement of antitumor effect of PD-L1 antibody (tumor volume)” value [1] is on record?
Answer: The value was “enhanced the antitumor effect of PD-L1 antibody”.

Question: And the “expression levels of PGC-1α protein and mRNA” value [2]?
Answer: Its value is “increased”.

Question: And the Eomes expression [3]?
Answer: The Eomes expression was “not Eomes expression”.

Question: And the T-bet expression [3]?
Answer: The T-bet expression was “increased T-bet expression; also recorded: up-regulated”.

Source: patent publication US20230272077A1, “PD-1 SIGNAL INHIBITOR COMBINATION THERAPY” (KYOTO UNIVERSITY, priority 2015, published 2023)
